Data set [1] deals with Cryptococcus neoformans. In words: Antifungal activity against wild type Cryptococcus neoformans H99 assessed as inhibition of fungal growth incubated for 24 to 72 hrs by optical density based analysis. Format: functional. The note with it: time 24-72 hrs.
Data set [2] can be described thus: Cytotoxicity against human A549 cells assessed as cell killing measured after 24 to 48 hrs by MTT assay. The note with it: time 24-48 hrs, read-out: LD50 (the source's name). Format: toxicity, cell-based. On the technique in general: Formazan colour is commonly taken as a measure of viable cells.
The test system of data set [3] is Cryptococcus neoformans. In words: Fungicidal activity against wild type Cryptococcus neoformans H99 assessed as minimum concentration required to kill fungus measured after 48 hrs by time-kill assay. Format: functional.
A short description of data set [4]: Selectivity index, ratio of LD50 for human A549 cells to MIC80 for Cryptococcus neoformans H99. Format: toxicity. The following applies: read-out: Selectivity Index.
In data set [5] the test system is Cryptococcus neoformans. In words: Fungicidal activity against wild type Cryptococcus neoformans H99 assessed as minimum concentration required to kill fungus measured after 24 hrs by time-kill assay. Format: functional.
Data set [6] concerns Cryptococcus neoformans. In words: Fungistatic activity against wild type Cryptococcus neoformans H99 assessed as inhibition of fungal growth incubated for 12 to 48 hrs by time-kill assay. The data set is classed as functional, organism-based. The following applies: time 12-48 hrs.
The next data set deals with Aspergillus fumigatus. In words: Antifungal activity against Aspergillus fumigatus assessed as inhibition of fungal growth incubated for 24 to 72 hrs by optical density based analysis. The data set is classed as functional. The following applies: time 24-72 hrs.
The test system of a further data set is Candida albicans. In words: Antifungal activity against Candida albicans assessed as inhibition of fungal growth incubated for 24 to 72 hrs by optical density based analysis. The note with it: time 24-72 hrs. Format: functional.

≈ marks a conversion by molar mass, not a printed value. Calls of active or inactive are those of the source. The rule behind the calls is not given here.

Regarding `Cc1ccc2c(C)c(C(=O)N/N=C/c3cc(Br)ccc3O)oc2c1`, the MIC80 (as a rule, the lowest concentration that inhibits either 80% of growth or 80% of the strains tested, depending on the study) with Cryptococcus neoformans [1] is greater than 16 µg/mL.

Consider `O=C(N/N=C/c1c(O)ccc2ccccc12)c1ccc(C(F)(F)F)o1`, for which, in data set [2], the CC50 amounted to 0.12 µg/mL (≈ 0.345 µM). In the data set on Cryptococcus neoformans [3], the MFC100 was 2 µg/mL (≈ 5.74 µM). In data set [4], the selectivity ratio turned out to be 0.24. Also, the MIC80 with Cryptococcus neoformans [1] came out at 0.5 µg/mL (≈ 1.44 µM).

Turning to `O=C(N/N=C/c1cc(Br)ccc1O)c1csc2ccccc12`, the MIC80 with Cryptococcus neoformans [1] was greater than 16 µg/mL.

Turning to `O=C(N/N=C/c1ccc(Br)cc1O)c1cccs1`, in the data set on Cryptococcus neoformans [1], the MIC80 was determined as 4 µg/mL (≈ 12.3 µM).

Consider `O=C(N/N=C/c1cc(Br)cc(Br)c1O)c1cncc(Br)c1`, for which, in the data set on Cryptococcus neoformans [1], the MIC80 is greater than 16 µg/mL.

Turning to `O=C(N/N=C/c1cc(Br)ccc1O)c1cc(Br)c(Br)s1`, in the data set with Cryptococcus neoformans [5], the MFC100 came to 0.25 µg/mL (≈ 0.518 µM). The CC50 in data set [2] was found to be 32 µg/mL (≈ 66.3 µM). The selectivity ratio in data set [4] was found to be 267. For the same compound, in the data set with Cryptococcus neoformans [1], the MIC80 came to 0.12 µg/mL (≈ 0.248 µM).

For `O=C(N/N=C/c1cc(Br)cc(Br)c1O)c1cc(Br)co1`, the CC50 in data set [2] was 16 µg/mL (≈ 34.3 µM). For the same compound, the outcome in the data set with Cryptococcus neoformans [6] was Active. For the same compound, the selectivity ratio in data set [4] turned out to be 267. In addition, in the data set with Cryptococcus neoformans [1], the MIC80 worked out at 0.06 µg/mL (≈ 0.129 µM).

As for `O=C(N/N=C/c1cc(Br)cc(Br)c1O)c1cc2ccccc2cn1`, the MIC80 with Cryptococcus neoformans [1] is greater than 16 µg/mL.

Consider `O=C(N/N=C/c1cc(Br)ccc1O)c1nc2cc(Br)ccc2[nH]1`, for which the MIC80 in the data set on Cryptococcus neoformans [1] was greater than 16 µg/mL.

For the compound `O=C(N/N=C/c1ccc(Br)cc1O)c1ccc(C(F)(F)F)s1`, the MFC100 in the data set on Cryptococcus neoformans [5] was found to be 0.5 µg/mL (≈ 1.27 µM). The CC50 in data set [2] turned out to be 0.5 µg/mL (≈ 1.27 µM). Also, the selectivity ratio in data set [4] stood at 8.3. The MIC80 in the data set with Cryptococcus neoformans [1] turned out to be 0.06 µg/mL (≈ 0.153 µM).

Regarding `O=C(N/N=C/c1cc(Br)ccc1O)c1cc(Br)co1`, the CC50 in data set [2] was 16 µg/mL (≈ 41.2 µM). For the same compound, the result with Cryptococcus neoformans [6] was Active. For the same compound, in data set [4], the selectivity ratio came to 64. For the same compound, the MIC80 with Cryptococcus neoformans [1] turned out to be 0.25 µg/mL (≈ 0.644 µM).

On to `C[C@@H]1[C@H](O)[C@@H](C)/C=C/C=C/C=C/C=C/C=C/C=C/C=C/[C@H](O[C@@H]2O[C@H](C)[C@@H](O)[C@H](N)[C@@H]2O)C[C@@H]2O[C@](O)(C[C@@H](O)C[C@@H](O)[C@H](O)CC[C@@H](O)C[C@@H](O)CC(=O)O[C@H]1C)C[C@H](O)[C@H]2C(=O)O` [AMPHOTERICIN B], for which the MIC80 with Aspergillus fumigatus came to 1 µg/mL (≈ 1.08 µM); in the data set on Cryptococcus neoformans [1] it was 0.5 µg/mL (≈ 0.541 µM).

On to `O=C(N/N=C/c1cc(Br)ccc1O)c1cccs1`, for which the MIC80 in the data set with Cryptococcus neoformans [1] came out at 8 µg/mL (≈ 24.6 µM).

In the case of `O=C(N/N=C/c1cc(Br)ccc1O)c1cc(Br)c[nH]1`, the MIC80 in the data set with Cryptococcus neoformans [1] is greater than 16 µg/mL.

As for `O=C(N/N=C/c1cc(Br)ccc1O)c1ncc(Br)cn1`, the MIC80 in the data set with Cryptococcus neoformans [1] is greater than 16 µg/mL.

Regarding `O=C(N/N=C/c1c(O)ccc2ccccc12)c1ccc(C(F)(F)F)s1`, the MFC100 in the data set on Cryptococcus neoformans [5] came out at 0.25 µg/mL (≈ 0.686 µM). The CC50 in data set [2] came out at 0.12 µg/mL (≈ 0.329 µM). Besides, in data set [4], the selectivity ratio stood at 17.1. The MIC80 in the data set with Cryptococcus neoformans [1] came out at 0.007 µg/mL (≈ 0.0192 µM).

`O=C(N/N=C/c1cc(Br)cc(Br)c1O)c1cc[nH]n1`: in the data set on Cryptococcus neoformans [1], the MIC80 is 4 µg/mL (≈ 10.3 µM).

Regarding `CC[C@H](C)C[C@H](C)CCCCCCCCC(=O)N[C@H]1C[C@@H](O)[C@@H](NCCN)NC(=O)[C@@H]2[C@@H](O)CCN2C(=O)[C@H]([C@H](O)CCN)NC(=O)[C@H]([C@H](O)[C@@H](O)c2ccc(O)cc2)NC(=O)[C@@H]2C[C@@H](O)CN2C(=O)[C@H]([C@@H](C)O)NC1=O` [CASPOFUNGIN], the MIC80 in the data set with Candida albicans is 0.5 µg/mL (≈ 0.457 µM); with Cryptococcus neoformans [1], greater than 32 µg/mL.

As for `O=C(N/N=C/c1cc(Br)cc(Br)c1O)c1cc[nH]c1`, the MIC80 in the data set with Cryptococcus neoformans [1] was determined as 2 µg/mL (≈ 5.17 µM).

Take `O=C(N/N=C/c1cc(Br)ccc1O)c1ccc(C(F)(F)F)o1`: the MIC80 in the data set on Cryptococcus neoformans [1] was 2 µg/mL (≈ 5.3 µM).

`O=C(N/N=C/c1cc(Br)ccc1O)c1ccc(C(F)(F)F)s1`: the MFC100 in the data set with Cryptococcus neoformans [5] was found to be 0.25 µg/mL (≈ 0.636 µM). The CC50 in data set [2] came to 1 µg/mL (≈ 2.54 µM). Besides, in data set [4], the selectivity ratio amounted to 143. In addition, the MIC80 with Cryptococcus neoformans [1] came to 0.007 µg/mL (≈ 0.0178 µM).

On to `O=C(N/N=C/c1cc(Br)cc(Br)c1O)c1ncc(Br)cn1`, for which, in the data set with Cryptococcus neoformans [6], the result was Active. In addition, the MIC80 in the data set with Cryptococcus neoformans [1] was found to be 0.25 µg/mL (≈ 0.522 µM).

Take `O=C(N/N=C/c1cc(Br)ccc1O)c1cc2cc(Br)ccc2cn1`: the MIC80 in the data set with Cryptococcus neoformans [1] was greater than 16 µg/mL.

Take `O=C(N/N=C/c1cc(Br)cc(Br)c1O)c1ncc[nH]1`: the MIC80 in the data set on Cryptococcus neoformans [1] is 2 µg/mL (≈ 5.15 µM).

Consider `OC(Cn1cncn1)(Cn1cncn1)c1ccc(F)cc1F` [FLUCONAZOLE], for which the MIC80 in the data set on Candida albicans worked out at 1 µg/mL (≈ 3.27 µM); in the data set with Cryptococcus neoformans [1], 2 µg/mL (≈ 6.53 µM).

On to `O=C(N/N=C/c1cc(Br)cc(Br)c1O)c1ccc(C(F)(F)F)s1`, for which the CC50 in data set [2] came out at 1 µg/mL (≈ 2.12 µM). In addition, in the data set on Cryptococcus neoformans [3], the MFC100 worked out at 0.25 µg/mL (≈ 0.53 µM). Also, in data set [4], the selectivity ratio was 16.6. Besides, the MIC80 in the data set on Cryptococcus neoformans [1] is 0.06 µg/mL (≈ 0.127 µM).

Consider `O=C(N/N=C/c1c(O)ccc2ccccc12)c1ccc(Br)o1`, for which, in data set [2], the CC50 is 32 µg/mL (≈ 89.1 µM). Moreover, the MFC100 with Cryptococcus neoformans [3] was 1 µg/mL (≈ 2.78 µM). The selectivity ratio in data set [4] was 267. The MIC80 in the data set on Cryptococcus neoformans [1] worked out at 0.12 µg/mL (≈ 0.334 µM).

`O=C(N/N=C/c1cc(Br)ccc1O)c1cc[nH]n1`: in the data set with Cryptococcus neoformans [1], the MIC80 came to 4 µg/mL (≈ 12.9 µM).

As for `O=C(N/N=C/c1ccc(Br)cc1O)c1cc(Br)c(Br)o1`, the CC50 in data set [2] is 16 µg/mL (≈ 34.3 µM). Besides, the outcome in the data set on Cryptococcus neoformans [6] was Active. For the same compound, in data set [4], the selectivity ratio came to 267. The MIC80 in the data set on Cryptococcus neoformans [1] worked out at 0.06 µg/mL (≈ 0.129 µM).

In the case of `O=C(N/N=C/c1c(O)ccc2ccccc12)c1cc(Br)c(Br)o1`, the CC50 in data set [2] was 32 µg/mL (≈ 73 µM). Besides, the outcome in the data set with Cryptococcus neoformans [6] was Active. For the same compound, the selectivity ratio in data set [4] is 267. Besides, the MIC80 with Cryptococcus neoformans [1] worked out at 0.12 µg/mL (≈ 0.274 µM).

For `O=C(N/N=C/c1c(O)ccc2ccccc12)c1ncc(Br)cn1`, the MIC80 in the data set with Cryptococcus neoformans [1] is 2 µg/mL (≈ 5.39 µM).

Consider `O=C(N/N=C/c1c(O)ccc2ccccc12)c1cc(Br)c[nH]1`, for which the MIC80 in the data set with Cryptococcus neoformans [1] was greater than 16 µg/mL.

As to `O=C(N/N=C/c1cc(Br)cc(Br)c1O)c1cc2cc(Br)ccc2cn1`, in the data set with Cryptococcus neoformans [1], the MIC80 is greater than 16 µg/mL.

The record behind these values is ChEMBL document CHEMBL5523691, “SAR study of N'-(Salicylidene)heteroarenecarbohydrazides as promising antifungal agents” (Bioorg Med Chem, 2024).
